We go through 1 molecule from patent US20210283107A1, “Methods to Expand the Spectrum of Gram-Positive Antibiotics” (NORTH CAROLINA STATE UNIVERSITY, priority 2016, published 2021).

Test [1] deals with AB5075. Briefly: Checkerboard assay for FIC determination with colistin. The following applies: chequerboard, ΣFIC≥2 considered antagonistic. It is filed as cell-based, Acinetobacter baumannii. The procedure:
Against AB5075, we determined that the ΣFIC with compound 1 to be 17 and the ΣFIC with compound 10 to be 33. These ΣFIC values indicate that both compounds are highly antagonistic with colistin as a ΣFIC≥2 is considered antagonistic.
Day Cultures (6 h) of A. baumannii 5075 were subcultured to 5×10^5 CFU/mL in cation adjusted Mueller-Hinton broth (CAMHB). 100 μL of the inoculated media was distributed into all wells of a 96-well plate except well 1A. Inoculated CAMHB (200 μL) containing compound (twice the highest concentration tested) was added to well 1A, and 100 μL of the same sample was added to wells 2A-12A. The contents in column A were mixed five times before 100 μL was transferred to column B. The contents of column B were mixed 5 times before transferring to column C. This process was repeated with the remainder of the columns up to column G. Column H was not mixed to allow determination of the antibiotic MIC alone. […] Row 12 was not mixed so that the MIC of the compound alone could be determined. The MICs of both compound and antibiotic alone were recorded, as well as the wells containing the combination. The ΣFICs were calculated as follows: ΣFIC=FIC (Compound)+FIC (antibiotic), where FIC (compound) is the MIC of the compound in the combination/MIC of the compound alone and the FIC (antibiotic) is the MIC of the antibiotic in combination/the MIC of the antibiotic alone. […]

For test [2], the system named is A. baumannii strain 5075 (AB5075). Briefly: Broth microdilution MIC determination of compound alone. The test is classed as cell-based. The following applies: Acinetobacter baumannii; compound alone; AB5075; read-out: MIC. The procedure:
Our initial screening began by testing a diverse selection of 2-AI compounds from our internal library for their minimal inhibitory concentrations (MIC) against A. baumannii isolate 5075.
Day Cultures (6 h) were subcultured to 5×10^5 CFU/mL in cation adjusted Mueller-Hinton broth (CAMHB). Aliquots (1 mL) were placed in culture tubes, and compound was added from 100 mM stock solutions, such that the compound concentration equaled the highest concentration tested (200 μM or 64 μg/mL). Samples were then aliquoted (200 μL) into the first row of wells of a 96-well plate, with all remaining wells being filled with 100 μL of initial bacterial subculture. The wells in row one were mixed five times before 100 μL was transferred to the following row (row two). Row two was then mixed five times, and 100 μL was transferred to row three. This processed was repeated until the final row had been mixed. This process provided a serial dilution of the compound. Plates were covered with Glad Press n'Seal and were incubated under stationary conditions at 37° C. for 16 hours. MIC values were recorded as the lowest concentration at which no bacterial growth was observed.
In general terms: Dilution methods test growth across graded concentrations, often in twofold steps.

Test [3] shares this test system. Briefly: Macrolide sensitization / antibiotic resensitization: antibiotic MIC in presence of compound (broth microdilution). The test is classed as cell-based, Acinetobacter baumannii. The following applies: compound at 30 μM vs antibiotic alone; AB5075. Put shortly: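 Antibiotic MICs were set by broth microdilution in CAMHB (AB5075, 5×10^5 CFU/mL), with compound held constant in every well. Growth was scored visually after 16-18 h at 37° C. Fold-reduction compares compound-treated MIC with the antibiotic-only control.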

Values after ≈ are worked out from the molar mass of the structure shown.

For the molecule `Nc1nc(-c2ccc(NC(=O)c3c(Cl)cc(Cl)cc3Cl)cc2)c[nH]1` [Compound 10], the ΣFIC with colistin in test [1] is 33. In test [2], the MIC – broadly, the smallest concentration in the dilution series that meets the test's criterion for growth inhibition – amounted to 100 µM (≈ 38.2 µg/mL). Further, in test [3], the “Fold reduction (erythromycin MIC)” value turned out to be 8 fold.
